Tested on: Trypanosoma brucei rhodesiense STIB900 (bloodstream trypomastigotes)
Test: In vitro antitrypanosomal activity, Alamar Blue assay
Format: cell-based
Settings: 70 h, STIB900 bloodstream forms, 70 h incubation, read-out: IC50 T. b. rhodesiense
Procedure: Assays were performed as described by Bernal et al.. In vitro antitrypanosomal activities of compounds were determined against Trypanosoma brucei rhodesiense STIB900 (bloodstream trypomastigotes) where the parasitic stock was isolated in 1982 from a human patient in Tanzania. […] Then, 10 μl of Alamar Blue (resazurin, 12.5 mg in 100 mL double-distilled water) was added to each well and incubation continued for a further 2–4 h. Plates were read with a Spectramax Gemini XS microplate fluorometer (Molecular Devices Cooperation, Sunnyvale, CA, USA) using an excitation wavelength of 536 nm and an emission wavelength of 588 nm.

Question: Which IC50 does the source give for `c1cncc(-c2cc(-c3ccc4c(c3)OCO4)ncn2)c1` [Compound 10, 4-(2H-1,3-benzodioxol-5-yl)-6-(pyridin-3-yl)pyrimidine] here?
Answer: 6.7 µM

Question: With `Nc1nc(-c2cccnc2)cc(-c2ccc3c(c2)OCO3)n1` [Compound 21, 4-(2H-1,3-benzodioxol-5-yl)-6-(pyridin-3-yl)pyrimidin-2-amine] as the compound, how does the IC50 read?
Answer: 12.9 µM

Tested on: L6 cells (rat skeletal myoblasts)
Test: In vitro cytotoxicity with L6 cells, Alamar Blue assay
Format: cell-based
Settings: not given
Procedure: (§1) In vitro cytotoxicity with L6 cells (a […] cell line derived from rat skeletal myoblasts) were performed in 96-well microtiter plates with each well containing 100 μl of RPMI 1640 medium supplemented with 1% L-glutamine (200 mM) and 10% fetal bovine serum and 4000 L6 cells. Serial drug dilutions from 100 to 0.002 μg/mL were prepared and after 70 h of incubation the plates were microscopically inspected to ensure the validity of control wells and sterile conditions. Then, 10 μl of Alamar Blue was added to each well and the plates incubated for an additional 2 h. Plates were read with a Spectramax Gemini XS microplate fluorometer (Molecular Devices Cooperation, Sunnyvale, CA, USA) using an excitation wave length of 536 nm and an emission wave length of 588 nm.

Question: Which CC50 does the source give for “4-(2-Methoxyphenyl)-6-(pyridin-2-yl)pyrimidin-2-amine [Compound 23]” here?
Answer: > 100 µM

Question: For “4-(2-Methoxyphenyl)-6-(pyridin-4-yl)pyrimidine [Compound 24]”, which CC50 is on record?
Answer: > 100 µM

Question: With “4-(2-Methoxyphenyl)-6-(pyridin-4-yl)pyrimidin-2-amine [Compound 25]” as the compound, how does the CC50 read?
Answer: > 70 µM

Tested on: not listed separately
Test: as above
Format: cell-based, rat
Settings: L6 cells (rat skeletal myoblasts); L6 rat skeletal myoblasts, 70 h incubation
Procedure: as §1

Question: Which CC50 at 70 h does the source give for `c1cncc(-c2cc(-c3ccc4c(c3)OCO4)ncn2)c1` [Compound 10, 4-(2H-1,3-benzodioxol-5-yl)-6-(pyridin-3-yl)pyrimidine] here?
Answer: > 100 µM

Question: Which CC50 at 70 h does the source give for `Nc1nc(-c2cccnc2)cc(-c2ccc3c(c2)OCO3)n1` [Compound 21, 4-(2H-1,3-benzodioxol-5-yl)-6-(pyridin-3-yl)pyrimidin-2-amine] here?
Answer: > 100 µM

Same assay, conditions: L6 rat skeletal myoblasts, 70 h incubation

Question: Which CC50 at 70 h does the source give for `COc1cc([C@@H]2c3cc4c(cc3[C@H](O)[C@H]3COC(=O)[C@H]23)OCO4)cc(OC)c1OC` [Podophyllotoxin, reference compound] here?
Answer: 0.019 µM

Tested on: not given
Test: not given
Settings: not given

Question: With `Nc1nc(-c2cccnc2)cc(-c2cccnc2)n1` [Compound 12, 4,6-Bis(Pyridin-3-yl)pyrimidin-2-amine] as the compound, how does the melting point read?
Answer: 229 to 230 °C

Question: Which melting point does the source give for `c1cncc(-c2cc(-c3cccnc3)ncn2)c1` [Compound 2, 4,6-Bis(Pyridin-3-yl)pyrimidine] here?
Answer: 206 to 207 °C

Question: Which melting point does the source give for `Nc1nc(-c2ccc(Br)cc2)cc(-c2cccnc2)n1` [Compound 19, 4-(4-Bromophenyl)-6-(pyridin-3-yl)pyrimidin-2-amine] here?
Answer: 210 to 211 °C

Question: With `Fc1cccc(-c2cc(-c3cccnc3)ncn2)c1` [Compound 7, 4-(3-Fluorophenyl)-6-(pyridin-3-yl)pyrimidine] as the compound, how does the melting point read?
Answer: 193 to 195 °C

Question: Which melting point does the source give for `c1cncc(-c2cc(-c3ccc4c(c3)OCO4)ncn2)c1` [Compound 10, 4-(2H-1,3-benzodioxol-5-yl)-6-(pyridin-3-yl)pyrimidine] here?
Answer: 173 to 175 °C

Question: With `Nc1nc(-c2cccnc2)cc(-c2ccc3c(c2)OCO3)n1` [Compound 21, 4-(2H-1,3-benzodioxol-5-yl)-6-(pyridin-3-yl)pyrimidin-2-amine] as the compound, how does the melting point read?
Answer: 236 to 238 °C

Question: For `c1ccc(-c2cc(-c3cccnc3)ncn2)cc1` [Compound 1, 4-Phenyl-6-(pyridin-3-yl)pyrimidine], which melting point is on record?
Answer: 116 to 118 °C

Question: With `COc1cccc(-c2cc(-c3cccnc3)ncn2)c1` [Compound 5, 4-(3-Methoxyphenyl)-6-(pyridin-3-yl)pyrimidine] as the compound, how does the melting point read?
Answer: 124 to 125 °C

Question: For `COc1ccc(-c2cc(-c3cccnc3)nc(N)n2)cc1OC` [Compound 20, 4-(3,4-Dimethoxyphenyl)-6-(pyridin-3-yl)pyrimidin-2-amine], which melting point is on record?
Answer: 165 to 167 °C

Question: With `COc1ccc(-c2cc(-c3cccnc3)ncn2)cc1` [Compound 8, 4-(4-Methoxyphenyl)-6-(pyridin-3-yl)pyrimidine] as the compound, how does the melting point read?
Answer: 165 to 167 °C

Question: For `Nc1nc(-c2cccnc2)cc(-c2ccccc2Br)n1` [Compound 14, 4-(2-Bromophenyl)-6-(pyridin-3-yl)pyrimidin-2-amine], which melting point is on record?
Answer: 149 to 152 °C

Question: Which melting point does the source give for `Nc1nc(-c2cccnc2)cc(-c2cccc(Br)c2)n1` [Compound 16, 4-(3-Bromophenyl)-6-(pyridin-3-yl)pyrimidin-2-amine] here?
Answer: 169 to 171 °C

Question: For `COc1ccc(-c2cc(-c3cccnc3)nc(N)n2)cc1` [Compound 18, 4-(4-Methoxyphenyl)-6-(pyridin-3-yl)pyrimidin-2-amine], which melting point is on record?
Answer: 163 to 165 °C

Question: For `Nc1nc(-c2cccnc2)cc(-c2cccc(F)c2)n1` [Compound 17, 4-(3-Fluorophenyl)-6-(pyridin-3-yl)pyrimidin-2-amine], which melting point is on record?
Answer: 196 to 198 °C

Question: With `COc1ccc(-c2cc(-c3cccnc3)ncn2)cc1OC` [Compound 9, 4-(3,4-Dimethoxyphenyl)-6-(pyridin-3-yl)pyrimidine] as the compound, how does the melting point read?
Answer: 131 to 134 °C

Question: For `Nc1nc(-c2ccccc2)cc(-c2cccnc2)n1` [Compound 11, 4-Phenyl-6-(pyridin-3-yl)pyrimidin-2-amine], which melting point is on record?
Answer: 172 to 175 °C

Question: With `COc1ccccc1-c1cc(-c2cccnc2)ncn1` [Compound 3, 4-(2-Methoxyphenyl)-6-(pyridin-3-yl)pyrimidine] as the compound, how does the melting point read?
Answer: 102 to 104 °C

Question: Which melting point does the source give for `Brc1cccc(-c2cc(-c3cccnc3)ncn2)c1` [Compound 6, 4-(3-Bromophenyl)-6-(pyridin-3-yl)pyrimidine] here?
Answer: 162 to 163 °C

Question: With `COc1cccc(-c2cc(-c3cccnc3)nc(N)n2)c1` [Compound 15, 4-(3-Methoxyphenyl)-6-(pyridin-3-yl)pyrimidin-2-amine] as the compound, how does the melting point read?
Answer: 162 to 164 °C

— paper PMC7762786, “The discovery of novel antitrypanosomal 4-phenyl-6-(pyridin-3-yl)pyrimidines” (European Journal of Medicinal Chemistry, 2021)
